Experimental data: patent publication US12129312B2, “Peptide compound, application thereof and composition containing same” (priority 2017, dated 2024)
Square brackets hold non-standard residues; d marks the D form. Peptide text beside a SMILES is read from it. * marks the point of attachment. Pro(5R-Ph) = O=C(O)[C@@H]1CC[C@H](c2ccccc2)N1; PEG8 = NCCOCCOCCOCCOCCOCCOCCOCCOCCC(=O)O; 2Nal = N[C@@H](Cc1ccc2ccccc2c1)C(=O)O; dNMeY = CN[C@H](Cc1ccc(O)cc1)C(=O)O; Hydrocinnamoyl = O=C(CCc1ccccc1)*; NEtLeu = CCN[C@@H](CC(C)C)C(=O)O; Tic = O=C(O)[C@@H]1Cc2ccccc2CN1; NMeL = CN[C@@H](CC(C)C)C(=O)O; NMehSer = CN[C@@H](CCO)C(=O)O; Lauroyl = CCCCCCCCCCCC(=O)*; NMeS = CN[C@@H](CO)C(=O)O; βAla = NCCC(=O)O

The compounds below were run against T1, human Chemokine like receptor 1 (Homo sapiens, UniProt Q99788) (assay: Activation of Tango CMKLR1-bla U2OS cells (beta-lactamase FRET reporter)). Conditions: determination by the method of Effect Embodiment 1; read-out: EC50.
T1 construct: host or cells: U2OS (Tango CMKLR1-bla U2OS)
T1 sequence (Q99788 1-373): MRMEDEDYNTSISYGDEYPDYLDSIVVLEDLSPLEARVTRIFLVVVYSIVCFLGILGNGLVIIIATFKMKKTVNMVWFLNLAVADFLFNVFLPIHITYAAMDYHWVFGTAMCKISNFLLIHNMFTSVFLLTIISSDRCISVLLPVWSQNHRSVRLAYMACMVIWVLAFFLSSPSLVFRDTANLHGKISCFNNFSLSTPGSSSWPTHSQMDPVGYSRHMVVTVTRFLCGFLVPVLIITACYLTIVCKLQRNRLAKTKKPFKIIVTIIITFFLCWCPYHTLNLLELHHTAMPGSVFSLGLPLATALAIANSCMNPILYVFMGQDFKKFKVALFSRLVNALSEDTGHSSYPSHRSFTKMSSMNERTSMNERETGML
Format: cell-based
Method: The polypeptide sequences described above are the polypeptide sequences disclosed in the patent JP2010-229093A of BANYU PHARMA CO LTD: (D-Tyr)-Phe-Leu-Pro-(D-Ser)-Gln-Phe-(D-Ala)-Tic-Ser was used as a positive control (SEQ ID NO: 102).
The activation of the compound on Tango™ CMKLR1-bla U2OS cells (Invitrogen Cat. nos. K1551) was tested.
The activation of each compound in the above experiments on Tango™ CMKLR1-bla U2OS cells was determined as follows:
Day 1: Cell Seeding on Plate
2. The medium was removed, and the cells were washed with DPBS twice, followed by addition of 3 mL of 0.05% trypsin, and placed in a 37° C., 5% CO2 incubator (Thermo Fisher, Waltham, Massachusetts, USA) for 3-5 minutes. After the cells were rounded, 3-5 mL of medium (medium formula: DMEM 90%, Dialyzed FBS 10%, NEAA 0.1 mM, HEPES (pH 7.3) 25 mM, Penicillin 100 U/mL, Streptomycin 100 μg/mL) was added to terminate digestion.
2. The digested cells were transferred to a 15 mL centrifuge tube (430790, Corning), centrifuged at 1000 rpm for 5 minutes (5810R, Eppendorf, Hamburg, Germany), and the supernatant was discarded.
3. 7 mL of medium (DMEM+10% FBS) was added, blowed into a single cell suspension, counted by a cell counter, and adjusted the cell suspension to a desired cell density of 250,000/mL with the medium.
4. The cell suspension was seeded into a 384-well cell plate (Corning 3712) in 40 μL/well to make the number of cells 10000 cells/well, and 32 μL of medium was added to the blank control.
5. The incubation was performed overnight at 37° C. under 5% CO2.
Day 2: Dosing and Testing
1. Preparation of 200× Compound Plate
1.1 The test compound was formulated into a 10 mM working solution in DMSO.
1.2 45 μL of 10 mM test compound was added to the 2nd column of rows A to P in the Echo-384 well plate. The compound was subjected to a 3-fold dilution with Precision (30 μL of DMSO was added to the 3rd to 11th columns; 15 μL of the drug solution was pipetted from the 2nd column to the 3rd column, blown and evenly mixed; then 15 μL of the drug solution was pipetted from the 3rd column to the 4th column, blown and evenly mixed; the drugs was subjected to a 3-fold dilution to obtain 10 concentrations in total). The 1st and 12th columns of the Echo-384 well plate were supplemented with 30 μL of DMSO.
2. Preparation of Intermediate Plate
500 nL, i.e., 0.5 μL of the diluted compound (or DMSO) in the 200× compound plate was transferred into the corresponding position of V-bottom 384-well plate with Echo. 20 μL of medium was added to each well, centrifuged, shaken and evenly mixed. The concentration of the drugs in each well of the 2nd to 11th column of intermediate plate (i.e., 5× compound plate) were shown in following Table 4.
3.1 The cell plate was taken out from the incubator and observed under a microscope. The diluted compound or DMSO in the intermediate plate was added to the cell plate in 10 μL/well in the corresponding cell plate, and 40 μL of medium was pre-filled in each well.
3.2 The cells were incubated at 37° C. under 5% CO2 for 4 hours.
4.1 1 mM CCF4-AM, solution B, Solution C, and Solution D were used to prepare an appropriate amount of 6× detection solution. The LiveBLAzer™-FRET B/G Loading kit (K1095, Thermo Fisher, Waltham, Massachusetts, USA) kit containing CCF-4AM and solutionB, solutionC, and solutionD was also purchased from invitrogen (K1157, Thermo Fisher, Waltham, Massachusetts, USA).
4.2 The cells were observed under a microscope and the cell plate was equilibrated to room temperature.
4.3 6 μL of CCF-4AM dissolved solution A, 60 μL of solution B, 904 μL of solution C and 30 μL of solution D were pipetted in an EP tube, blown, and evenly mixed to obtain a 6× detection solution. The prepared 6× detection solution was pipetted to a 384-well plate in 10 μL/well.

EC50	SMILES
31 nM	CC(C)C[C@H](NC(=O)[C@H](Cc1ccccc1)NC(=O)[C@@H](Cc1ccc(O)cc1)NC(=O)CCc1ccccc1)C(=O)N1CCC[C@H]1C(=O)N[C@H](CO)C(=O)N[C@@H](CCC(N)=O)C(=O)N[C@@H](Cc1ccccc1)C(=O)N[C@H](C)C(=O)N1Cc2ccccc2C[C@H]1C(=O)N[C@@H](CO)C(=O)O [YW-71, 3-phenylpropanoyl-(D-Tyr)-Phe-Leu-Pro-(D-Ser)-Gln-Phe-(D-Ala)-Tic-Ser-OH] (Hydrocinnamoyl-[dY]FLP[dS]QF[dA][Tic]S-OH)
25 nM	CC(C)C[C@@H](C(=O)N1CCC[C@H]1C(=O)N[C@H](CO)C(=O)N[C@@H](CCC(N)=O)C(=O)N[C@@H](Cc1ccccc1)C(=O)N[C@H](C)C(=O)N1Cc2ccccc2C[C@H]1C(=O)N(C)[C@@H](CCO)C(=O)O)N(C)C(=O)[C@H](Cc1ccccc1)NC(=O)[C@H](N)Cc1ccc(O)cc1 [YW-177, (D-Tyr)-Phe-(NMe-Leu)-Pro-(D-Ser)-Gln-Phe-(D-Ala)-Tic-(NMe-HoSer)-OH] (H-[dY]F[NMeL]P[dS]QF[dA][Tic][NMehSer]-OH)
1.4 nM	CN[C@H](Cc1ccc(O)cc1)C(=O)N[C@@H](Cc1ccccc1)C(=O)N(C)[C@@H](CC(C)C)C(=O)N1CCC[C@H]1C(=O)N[C@H](CO)C(=O)N[C@@H](CCC(N)=O)C(=O)N[C@@H](Cc1ccc2ccccc2c1)C(=O)N[C@H](C)C(=O)N1Cc2ccccc2C[C@H]1C(=O)N(C)[C@@H](CO)C(=O)O [YW-146, (D-NMe-Tyr)-Phe-(NMe-Leu)-Pro-(D-Ser)-Gln-2Nal-(D-Ala)-Tic-(NMe-Ser)-OH] (H-[dNMeY]F[NMeL]P[dS]Q[2Nal][dA][Tic][NMeS]-OH)
2.2 nM	CCCCCCCCCCCC(=O)NCCOCCOCCOCCOCCOCCOCCOCCOCCC(=O)NCCC(=O)NCCC(=O)N(C)[C@H](Cc1ccc(O)cc1)C(=O)N[C@@H](Cc1ccccc1)C(=O)N(C)[C@@H](CC(C)C)C(=O)N1CCC[C@H]1C(=O)N[C@H](CO)C(=O)N[C@@H](CCC(N)=O)C(=O)N[C@@H](Cc1ccc2ccccc2c1)C(=O)N[C@H](C)C(=O)N1Cc2ccccc2C[C@H]1C(=O)N(C)[C@@H](CO)C(=O)O [YW-181, Dodecanoyl-PEG8-βAla-βAla-(NMe-D-Tyr)-Phe-(NMe-Leu)-Pro-(D-Ser)-Gln-2Nal-(D-Ala)-Tic-(NMe-Ser)] ({Lauroyl-PEG8-βAla-βAla}-[dNMeY]F[NMeL]P[dS]Q[2Nal][dA][Tic][NMeS]-OH)
5.9 nM	CCN(C(=O)[C@H](Cc1ccccc1)NC(=O)[C@@H](Cc1ccc(O)cc1)NC(=O)CCc1ccccc1)[C@@H](CC(C)C)C(=O)N1CCC[C@H]1C(=O)N[C@H](CO)C(=O)N[C@@H](CCC(N)=O)C(=O)N[C@@H](Cc1ccccc1)C(=O)N[C@H](C)C(=O)N1Cc2ccccc2C[C@H]1C(=O)N[C@@H](CO)C(=O)O [YW-185, 3-Phenylpropanoyl-(D-Tyr)-Phe-(NEt-Leu)-Pro-(D-Ser)-Gln-Phe-(D-Ala)-Tic-Ser] (Hydrocinnamoyl-[dY]F[NEtLeu]P[dS]QF[dA][Tic]S-OH)
170 nM	CC(C)C[C@H](NC(=O)[C@H](Cc1ccccc1)NC(=O)[C@H](N)Cc1ccc(O)cc1)C(=O)N1[C@@H](c2ccccc2)CC[C@H]1C(=O)N[C@H](CO)C(=O)N[C@@H](CCC(N)=O)C(=O)N[C@@H](Cc1ccccc1)C(=O)N[C@H](C)C(=O)N1Cc2ccccc2C[C@H]1C(=O)N[C@@H](CO)C(=O)O [YW-112, (D-Tyr)-Phe-Leu-Pro(5Ph)-(D-Ser)-Gln-Phe-(D-Ala)-Tic-Ser-OH] (H-[dY]FL[Pro(5R-Ph)][dS]QF[dA][Tic]S-OH)
